Columns and labels:
Format in all cases: in vivo
Chenopodium album [1] = assay: Farming soil treatment test; conditions: soil surface spray prior to weed growth, 30 days
Description: (§1) Field soil was filled into a 1/6000 are pot followed by seeding with Digitaria ciliaris, Chenopodium album and Amaranthus retroflexus and covering with soil.
(§2) Wettable powder of compounds of formula (I) shown in Table 1 prepared in compliance with the preparation examples were diluted with water to the prescribed amount of chemical and uniformly sprayed onto each soil surface layer using 10 liters of sprayed water per are prior to weed growth following seeding.
(§3) After treating for 30 days in a glass greenhouse at an average atmospheric temperature of 30° C., the herbicidal efficacy thereof was investigated.
(§4) Evaluation of herbicidal efficacy is carried out in the same manner as the above-mentioned Test Example 1.

Digitaria ciliaris [2] = assay: Farming soil treatment test; conditions: soil surface spray prior to weed growth, 30 days
Description: as §1, §2, §3, §4

Amaranthus retroflexus [3] = assay: Farming soil treatment test; conditions: soil surface spray prior to weed growth, 30 days
Description: as §1, §2, §3, §4

Chenopodium album [4] = assay: Weed foliar treatment test; conditions: foliar spray, 3 weeks
Description: (§5) Soil was filled into a 1/6000 are pot followed by seeding with Digitaria ciliaris, Chenopodium album and Amaranthus retroflexus, covering with soil, and cultivating in a glass greenhouse at an average atmospheric temperature of 25° C.
(§6) Wettable powder of Target Compound (I) shown in Table 1 prepared in compliance with the preparation examples were diluted with water to the prescribed amount of chemical and uniformly sprayed onto the weeds using 15 liters of sprayed water per are when Digitaria ciliaris had grown to the 1.0 to 2.0 leaf stage.
(§7) After treating for 3 weeks in a glass greenhouse at an average atmospheric temperature of 25° C., the herbicidal efficacy thereof was investigated.
(§8) Evaluation of herbicidal efficacy was carried out in the same manner as the above-mentioned Test Example 1.

Digitaria ciliaris [5] = assay: Weed foliar treatment test; conditions: foliar spray at 1.0 to 2.0 leaf stage of Digitaria ciliaris, 3 weeks
Description: as §5, §6, §7, §8

Amaranthus retroflexus [6] = assay: Weed foliar treatment test; conditions: foliar spray, 3 weeks
Description: as §5, §6, §7, §8

Echinochloa crus-galli = assay: Paddy herbicidal activity test; conditions: irrigated paddy pot, treated at 3.5 leaf stage of Echinochloa crus-galli, 30 days
Description: (§9) Rice paddy soil was filled into a 1/10000 are pot followed by the addition of suitable amounts of water and chemical fertilizer, kneading, seeding with Echinochloa crus-galli, Monochoria vaginalis and Scirpus juncoides and maintaining in an irrigated state at a water depth of 3 cm.
(§10) Wettable powder of Target Compound (I) shown in Table 1 prepared in compliance with the preparation examples were diluted with a suitable amount of water, rice plants in the 2.0 leaf stage were transplanted during 3.5 leaf stage of Echinochloa crus-galli, and treated by dropping in chemical in the prescribed amount per are using a pipette.
as §3
(§11) Evaluation of herbicidal efficacy was carried out by comparing growth inhibition rate (%) with an untreated group, while evaluation of phytotoxicity was carried out by comparing growth inhibition rate (%) with the state of a complete eradication group, and were evaluated at 11 levels indicated below.

Monochoria vaginalis = assay: Paddy herbicidal activity test; conditions: irrigated paddy pot, 30 days
Description: as §9, §10, §3, §11

Scirpus juncoides = assay: Paddy herbicidal activity test; conditions: irrigated paddy pot, 30 days
Description: as §9, §10, §3, §11

Row | SMILES | Chenopodium album herbicidal efficacy (growth inhibition level) (Chenopodium album [1]; 5g a.i./10a) | Chenopodium album herbicidal efficacy (growth inhibition level) (Chenopodium album [1]; 10g a.i./10a) | Digitaria ciliaris herbicidal efficacy (growth inhibition level) (Digitaria ciliaris [2]; 5g a.i./10a) | Digitaria ciliaris herbicidal efficacy (growth inhibition level) (Digitaria ciliaris [2]; 10g a.i./10a) | Amaranthus retroflexus herbicidal efficacy (growth inhibition level) (Amaranthus retroflexus [3]; 5g a.i./10a) | Amaranthus retroflexus herbicidal efficacy (growth inhibition level) (Amaranthus retroflexus [3]; 10g a.i./10a) | Chenopodium album herbicidal efficacy (growth inhibition level) (Chenopodium album [4]; 5g a.i./10a) | Chenopodium album herbicidal efficacy (growth inhibition level) (Chenopodium album [4]; 10g a.i./10a) | Digitaria ciliaris herbicidal efficacy (growth inhibition level) (Digitaria ciliaris [5]; 5g a.i./10a) | Digitaria ciliaris herbicidal efficacy (growth inhibition level) (Digitaria ciliaris [5]; 10g a.i./10a) | Amaranthus retroflexus herbicidal efficacy (growth inhibition level) (Amaranthus retroflexus [6]; 5g a.i./10a) | Amaranthus retroflexus herbicidal efficacy (growth inhibition level) (Amaranthus retroflexus [6]; 10g a.i./10a) | Echinochloa crus-galli herbicidal efficacy (growth inhibition level) (Echinochloa crus-galli; 1g a.i./10a) | Echinochloa crus-galli herbicidal efficacy (growth inhibition level) (Echinochloa crus-galli; 5g a.i./10a) | Monochoria vaginalis herbicidal efficacy (growth inhibition level) (Monochoria vaginalis; 1g a.i./10a) | Monochoria vaginalis herbicidal efficacy (growth inhibition level) (Monochoria vaginalis; 5g a.i./10a) | Scirpus juncoides herbicidal efficacy (growth inhibition level) (Scirpus juncoides; 1g a.i./10a) | Scirpus juncoides herbicidal efficacy (growth inhibition level) (Scirpus juncoides; 5g a.i./10a)
1 | CC=CCNc1c(C#N)cnn1-c1nn2c(c1Cl)CCCC2 (mixture of isomers) [Compound 12] | 10 (10: 100%) | 10 (10: 100%) | 10 (10: 100%) | 10 (10: 100%) | 10 (10: 100%) | 10 (10: 100%) | 10 (10: 100%) | 10 (10: 100%) | 10 (10: 100%) | 10 (10: 100%) | 10 (10: 100%) | 10 (10: 100%) | 9 (9: 90% to less than 100%) | 10 (10: 100%) | 9 (9: 90% to less than 100%) | 10 (10: 100%) | 8 (8: 80% to less than 90%) | 9 (9: 90% to less than 100%)
2 | CC=CCN(C(=O)C(F)(F)F)c1c(C#N)cnn1-c1nn2c(c1Cl)CCCC2 (mixture of isomers) [Compound 24] | 10 (10: 100%) | 10 (10: 100%) | 10 (10: 100%) | 10 (10: 100%) | 10 (10: 100%) | 10 (10: 100%) | 10 (10: 100%) | 10 (10: 100%) | 10 (10: 100%) | 10 (10: 100%) | 10 (10: 100%) | 10 (10: 100%) | 9 (9: 90% to less than 100%) | 10 (10: 100%) | 8 (8: 80% to less than 90%) | 9 (9: 90% to less than 100%) | 8 (8: 80% to less than 90%) | 9 (9: 90% to less than 100%)
3 | N#Cc1cnn(-c2nn3c(c2Cl)CCCC3)c1N(C/C=C\Cl)C(=O)C(F)(F)F [Compound 21] | 10 (10: 100%) | 10 (10: 100%) | 10 (10: 100%) | 10 (10: 100%) | 10 (10: 100%) | 10 (10: 100%) | 10 (10: 100%) | 10 (10: 100%) | 10 (10: 100%) | 10 (10: 100%) | 10 (10: 100%) | 10 (10: 100%) | 9 (9: 90% to less than 100%) | 9 (9: 90% to less than 100%) | 9 (9: 90% to less than 100%) | 9 (9: 90% to less than 100%) | 8 (8: 80% to less than 90%) | 10 (10: 100%)
4 | O=C(N(C/C=C\Cl)c1c([N+](=O)[O-])cnn1-c1nn2c(c1Cl)CCCC2)C(F)(F)F [Compound 39] |  |  |  |  |  |  |  |  |  |  |  |  | 9 (9: 90% to less than 100%) | 10 (10: 100%) | 7 (7: 70% to less than 80%) | 8 (8: 80% to less than 90%) | 8 (8: 80% to less than 90%) | 8 (8: 80% to less than 90%)
5 | C=CCCNc1c(C#N)cnn1-c1nn2c(c1Br)CCCC2 [Compound 42] |  |  |  |  |  |  |  |  |  |  |  |  | 8 (8: 80% to less than 90%) | 9 (9: 90% to less than 100%) | 7 (7: 70% to less than 80%) | 8 (8: 80% to less than 90%) | 8 (8: 80% to less than 90%) | 8 (8: 80% to less than 90%)
6 | N#Cc1cnn(-c2nn3c(c2Br)CCCC3)c1NC/C=C\Cl [Compound 45] |  |  |  |  |  |  |  |  |  |  |  |  | 9 (9: 90% to less than 100%) | 9 (9: 90% to less than 100%) | 9 (9: 90% to less than 100%) | 9 (9: 90% to less than 100%) | 9 (9: 90% to less than 100%) | 9 (9: 90% to less than 100%)
7 | CC(C)=CCNc1c(C#N)cnn1-c1nn2c(c1Br)CCCC2 [Compound 48] |  |  |  |  |  |  |  |  |  |  |  |  | 8 (8: 80% to less than 90%) | 9 (9: 90% to less than 100%) | 8 (8: 80% to less than 90%) | 10 (10: 100%) | 7 (7: 70% to less than 80%) | 8 (8: 80% to less than 90%)
8 | C=CCN(C(=O)C(F)(F)F)c1c(C#N)cnn1-c1nn2c(c1Br)CCCC2 [Compound 49] |  |  |  |  |  |  |  |  |  |  |  |  | 8 (8: 80% to less than 90%) | 9 (9: 90% to less than 100%) | 7 (7: 70% to less than 80%) | 9 (9: 90% to less than 100%) | 8 (8: 80% to less than 90%) | 9 (9: 90% to less than 100%)
9 | C=CCCN(C(=O)C(F)(F)F)c1c(C#N)cnn1-c1nn2c(c1Br)CCCC2 [Compound 50] |  |  |  |  |  |  |  |  |  |  |  |  | 9 (9: 90% to less than 100%) | 10 (10: 100%) | 7 (7: 70% to less than 80%) | 9 (9: 90% to less than 100%) | 7 (7: 70% to less than 80%) | 8 (8: 80% to less than 90%)
10 | C=C(Cl)CN(C(=O)C(F)(F)F)c1c(C#N)cnn1-c1nn2c(c1Br)CCCC2 [Compound 51] |  |  |  |  |  |  |  |  |  |  |  |  | 9 (9: 90% to less than 100%) | 9 (9: 90% to less than 100%) | 8 (8: 80% to less than 90%) | 8 (8: 80% to less than 90%) | 8 (8: 80% to less than 90%) | 8 (8: 80% to less than 90%)
11 | N#Cc1cnn(-c2nn3c(c2Br)CCCC3)c1N(C/C=C\Cl)C(=O)C(F)(F)F [Compound 53] |  |  |  |  |  |  |  |  |  |  |  |  | 9 (9: 90% to less than 100%) | 10 (10: 100%) | 7 (7: 70% to less than 80%) | 8 (8: 80% to less than 90%) | 7 (7: 70% to less than 80%) | 8 (8: 80% to less than 90%)

Reference: patent publication US9593122B2, “Substituted pyrazolylpyrazole derivative and use of same as herbicide” (KYOYU AGRI CO., LTD., priority 2013, dated 2017)
